Details: not given

Compound	boiling point	log10 Henry constant (atm·m³/mol)	log10 Koc (L/kg)	log10 vapour pressure (mmHg)	melting point	ready biodegradability	log10 Koa	log10 biodegradation half-life (days)
CCCCC(CC)COC(=O)CCCCC(=O)OCC(CC)CCCC (stereo not given)	417 °C	-6.36	4.19	-6.07	-67.8 °C	readily biodegradable		
CNc1ccccn1	200 °C				15 °C			
Cc1ccc2cc3ccccc3cc2c1				-5.27	209 °C			
COCCCl	92.5 °C							
O=C(O)c1ccc2ccccc2n1					156 °C	readily biodegradable		
O=C(O)C(Br)CBr (stereo not given)					66.5 °C			
Nc1c(Br)cc(O)c2c1C(=O)c1ccccc1C2=O						not readily biodegradable		
CN[C@@H](C)Cc1ccccc1.Cl					172 °C			
COC(=O)c1ccccc1CS(=O)(=O)NC(=O)Nc1nc(OC)cc(OC)n1			2.5	-13.7	187 °C			
CC(=O)Oc1cccc(C)c1	212 °C				12 °C			
O=CC=O	50.4 °C	-8.48		2.41	15 °C	readily biodegradable		
CN1CCC(OC(c2ccccc2)c2ccccc2)CC1.Cl					204 °C			
C[C@H]1C(=O)CC[C@@H]2[C@]1(C)CC[C@H]1[C@@]2(C)CC[C@@]2(C)[C@@H]3CC(C)(C)CC[C@]3(C)CC[C@]12C					263 °C			
CC(N)=O	222 °C		0.7	-1.4	81 °C	readily biodegradable		
Oc1c(Cl)c(Cl)cc(Cl)c1Cl					115 °C			
CCCC(O)CCC	156 °C			-0.0048	-41.2 °C			
Cc1ccc2nccnc2c1	249 °C				218 °C			
Brc1cncc(Br)c1	222 °C				112 °C			
O=C1c2cccc(O)c2C(=O)c2c(O)cc(CO)cc21					224 °C			
C1=Cc2ccccc2CC1	206 °C				-8 °C			
CCCCC(C)(C)CCC	158 °C							
C#CC(C)(CC)OC(=O)c1ccccc1C(=O)O (stereo not given)					97 °C			
O=[N+]([O-])c1cc([N+](=O)[O-])c(F)cc1F					73 °C			
O=C1c2ccccc2C(=O)c2c(NCCO)ccc(NCCO)c21					248 °C			
CC1C=CCCC1 (stereo not given)	103 °C			1.54				

Compound	boiling point	log10 Henry constant (atm·m³/mol)	log10 Koc (L/kg)	log10 vapour pressure (mmHg)	melting point	ready biodegradability	log10 Koa	log10 biodegradation half-life (days)
C[C@@H](CO)NC(=O)[C@@H]1C=C2c3cccc4[nH]cc(c34)C[C@H]2N(C)C1					162 °C			
NC(=O)OCCCl					75.5 °C			
Cc1cc(C)cc(-c2ccccc2)c1	274 °C				22.5 °C			
CS(=O)(=O)c1ccc2c(c1)N(CCCN1CCC(C(N)=O)CC1)c1ccccc1S2					170 °C			
c1ccc2oncc2c1	215 °C							
NC(=O)c1ncccc1O					195 °C			
O=CC=Cc1ccc([N+](=O)[O-])cc1					142 °C			
OCCc1ccc2ccccc2n1					103 °C			
CCCSCC	119 °C			1.27	-117 °C			
COC(C)(C)C	55.2 °C	-3.23		2.4	-109 °C	not readily biodegradable	2.58	
CC(O)CBr (stereo not given)	146 °C							
Nc1ccc(S)cc1					46 °C			
Nc1ccc(Cl)cc1C(=O)c1ccccc1					99 °C			
CC(C)c1cccc(C(C)C)c1	203 °C			-0.406	-63.1 °C			
NC(=S)Nc1ccccc1					154 °C			
O=C1COc2ccccc21					102 °C			
COC(=O)c1cccc(N)c1					39 °C			
CC(C)CCCC(C)(C)O	173 °C							
Cc1ccn(-c2ccccc2)n1	255 °C				37 °C			
FC(F)(F)C(Cl)=CCl	53.7 °C				-109 °C			
CC(C)Nc1nc(Cl)nc(NC(C)C)n1			2.4	-6.88	213 °C	not readily biodegradable		
Oc1c(Br)cccc1Br	255 °C				56.5 °C			
C=CCCCCCCC=C	167 °C							
CCCCCCCCCCCCCCCCCCCCCCCCCC(=O)OC					63.8 °C			
O=C(Nc1ccc(Cc2ccc(NC(=O)N3CC3)cc2)cc1)N1CC1						not readily biodegradable		

Compound	boiling point	log10 Henry constant (atm·m³/mol)	log10 Koc (L/kg)	log10 vapour pressure (mmHg)	melting point	ready biodegradability	log10 Koa	log10 biodegradation half-life (days)
Cc1ccc2c(ccc3ccccc32)c1					58 °C			1.36
O=c1c(O)c(-c2ccc(O)c(O)c2)oc2cc(O)cc(O)c12					316 °C			
Nc1ccn([C@@H]2O[C@H](COP(=O)(O)O)[C@@H](O)[C@@H]2O)c(=O)n1					233 °C			
CCC1CCc2ccccc21 (stereo not given)	212 °C							
CCC(C)C(C)(C)C (stereo not given)								0.845
NCCCN	140 °C							
CCOC(=O)C1=C(C)NC(C)=C(C(=O)OCC)C1					180 °C			
C=C(C)[C@@H]1CC[C@@H](C)C[C@@H]1O					78 °C			
CCC(C)CC(C)C(C)C (stereo not given)	161 °C							
CN(CC(=O)N1CCOCC1)Cc1c(Cl)cccc1NC(=O)c1ccccc1					123 °C			
CCCCCCCCCCCCCCCCCCCCCC(=O)OCC					50 °C			
Cc1cc(=O)[nH]o1				-2.86	86.5 °C			
CN1C2CCCC1CC(=O)C2	246 °C				54 °C			
CCCCCCCOC(C)=O	193 °C				-50.2 °C			
Clc1ccc(Oc2c(Cl)cccc2Cl)cc1				-3.66				
c1ccc(Sc2ccccc2)cc1	296 °C			-2.12	-25.9 °C			
O=C1CCCCC1=O	194 °C				40 °C			
Cn1c(=O)c2c(ncn2CCO)n(C)c1=O					158 °C			
CCCC(CCC)C(=O)O	222 °C					readily biodegradable		
CCCCCCCCCCCCCCCCCCCCCC(=O)O					81 °C			
CC(C)(C)C(O)(CCc1ccc(Cl)cc1)Cn1cncn1 (stereo not given)				-7.89	102 °C			
C=CC(C)CCCC (stereo not given)	111 °C							
COc1cc(OC)nc(NC(=O)NS(=O)(=O)c2ncccc2C(F)(F)F)n1					180 °C			
C[C@]12CCC(=O)C[C@@H]1CC[C@@H]1[C@@H]2CC[C@]2(C)[C@@H](O)CC[C@@H]12					181 °C			
O=CCO		-7.62			97 °C			

Compound	boiling point	log10 Henry constant (atm·m³/mol)	log10 Koc (L/kg)	log10 vapour pressure (mmHg)	melting point	ready biodegradability	log10 Koa	log10 biodegradation half-life (days)
O=C1[C@@H]2C[C@H](CN3CCCC[C@@H]23)[C@H]2CCCCN12					111 °C			
CC[C@@H](CO)NC(=O)[C@@H]1C=C2c3cccc4[nH]cc(c34)C[C@H]2N(C)C1					172 °C			
CCCCCCCCNC(C)C(O)c1ccc(SC(C)C)cc1 (stereo not given)					62.5 °C			
CCCCN(CC)c1c([N+](=O)[O-])cc(C(F)(F)F)cc1[N+](=O)[O-]	370 °C		4.03	-4.19	66 °C	not readily biodegradable		
CC(Cl)CC(Cl)Cl (stereo not given)	152 °C							
O=c1cc(-c2ccccc2)oc2cc(O)ccc12					246 °C			
CCC(C)CC(C)(C)CC (stereo not given)	156 °C							
CCC(COCCOc1c(I)cc(I)c(NC(C)=O)c1I)C(=O)O (stereo not given)					130 °C			
CCCCC(C=O)CC (stereo not given)	163 °C			0.255				
NC(Cc1cc(Br)c(O)c(Br)c1)C(=O)O (stereo in doubt)					245 °C			
Clc1cc(Cl)c2c(Cl)cccc2c1Cl							8.58	
CC(C)(C)N(NC(=O)c1ccccc1)C(=O)c1ccc(Cl)cc1Cl					134 °C			
COC(=O)c1ccc(Br)cc1					81 °C			
FCCC(F)(F)F	29.4 °C							
CCOC(=O)C1(C(=O)OCC)CCC1	224 °C							
FC(Cl)(Cl)Cl	23.7 °C	-1.01		2.9	-111 °C			
CNCCc1ccc(O)c(O)c1					188 °C			
OCCCCCCCCCCF					22 °C			
CCCC(C)C(C)(C)C (stereo not given)	134 °C			1.06				
CC(C)(O)CO	176 °C							
CCOC(=O)C(=Cc1ccccc1)C(=O)OCC					32 °C			
C=C(C)[C@@H]1CC[C@]2(C)CC[C@]3(C)[C@H](CC[C@@H]4[C@@]5(C)CC[C@H](O)C(C)(C)[C@@H]5CC[C@]43C)[C@@H]12					216 °C			
Nc1ccc(N)c2c1C(=O)c1c(N)ccc(N)c1C2=O					285 °C			
Cc1cc(=O)oc2cc(O)c(O)cc12					275 °C			
CC1(C)CC(O)CC(C)(CN)C1 (stereo not given)	265 °C				45.5 °C			

Compound	boiling point	log10 Henry constant (atm·m³/mol)	log10 Koc (L/kg)	log10 vapour pressure (mmHg)	melting point	ready biodegradability	log10 Koa	log10 biodegradation half-life (days)
CCCCCCCCI	226 °C			-0.602	-45.7 °C			
O=[N+]([O-])c1cc(N(CCO)CCO)ccc1NCCO					95.5 °C			
CC(=O)O[C@H]1[C@H]2O[C@]23[C@@H]2CC[C@]4(O)C[C@@H](O)CC[C@]4(C)[C@H]2CC[C@]3(C)[C@H]1c1ccc(=O)oc1					260 °C			
CCc1cc(CC)c(CC)c(CC)c1CC	277 °C							
Cc1c(C2(c3cc(C(C)C)c(O)c(Br)c3C)OS(=O)(=O)c3ccccc32)cc(C(C)C)c(O)c1Br					201 °C			
CC[N+](C)(C)C(C)CC(c1ccccc1)c1ccccc1.[Br-] (stereo not given)					204 °C			
CNC(C)=O	205 °C			-0.356	28 °C	readily biodegradable		
CCCCCCOC(=O)CCCCCCCC(=O)OCCCCCC					-8 °C			
CCCCCC(C)Br (stereo not given)	166 °C			0.358	47 °C			
CCCCCCCC/C=C\CCCCCCCCCCCCC	378 °C			-4.45				
NCCO	171 °C			-0.394	10.5 °C	readily biodegradable		
COc1ccc([C@@H]2Sc3ccccc3N(CCN(C)C)C(=O)[C@@H]2OC(C)=O)cc1					210 °C			
CC(CN1c2ccccc2Sc2ccccc21)[N+](C)(C)CCO.[Cl-] (stereo not given)					233 °C			
CC1=CCC(C(C)C)=CC1	183 °C	-1.59		0.0362	-10 °C	readily biodegradable		
N#Cc1ccc(C=O)cc1					100 °C			
O=C(O)c1ccccc1Oc1ccccc1	355 °C				113 °C			
CCCC(C1CCCCC1)C1CCCCC1	293 °C				-10.5 °C			
c1ccc2c(c1)Cc1cc3ccccc3cc1-2				-7.26	212 °C			
CN(c1ccccc1)c1ccccc1	294 °C			-2.51	-7.5 °C			
O=Cc1c[nH]c2ccccc12					196 °C			
CCOC(=O)NCCOc1ccc(Oc2ccccc2)cc1			3	-8.2	53.2 °C			

Same assay, conditions: fish

Compound	log10 biotransformation half-life (days)	log10 BCF
Cc1ccc2cc3ccccc3cc2c1	-0.02	
Oc1c(Cl)c(Cl)cc(Cl)c1Cl	-0.1	2.15
CC(C)=C1C=C2CCC3C(C)(C(=O)O)CCCC3(C)C2CC1 (stereo not given)		2.17
COC(C)(C)C	-0.88	0.18
CC(C)c1cccc(C(C)C)c1	0.56	3.28
Cc1ccc2c(ccc3ccccc32)c1		3.48
CC(C)(C)C(O)(CCc1ccc(Cl)cc1)Cn1cncn1 (stereo not given)	0.77	
c1ccc2c(c1)Cc1cc3ccccc3cc1-2	-0.39	
